Experimental findings from US7947695B2, “5-membered annelated heterocyclic pyrimidines as kinase inhibitors” (Janssen Pharmaceutica NV, priority 2005, dated 2011) are described below.

Structures are written as SMILES. Where only a bound is given, the exact number is not on record here.

CDK4/cyclinD1, sequence (P11802 whole entry): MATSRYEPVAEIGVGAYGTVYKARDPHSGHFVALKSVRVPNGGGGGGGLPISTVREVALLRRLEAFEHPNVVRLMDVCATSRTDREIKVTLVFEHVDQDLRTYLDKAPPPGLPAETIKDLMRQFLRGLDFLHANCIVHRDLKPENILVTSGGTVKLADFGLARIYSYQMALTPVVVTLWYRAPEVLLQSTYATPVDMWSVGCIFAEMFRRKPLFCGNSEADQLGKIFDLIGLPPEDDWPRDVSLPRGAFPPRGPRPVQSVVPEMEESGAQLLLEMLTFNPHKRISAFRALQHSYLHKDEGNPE
CDK4/cyclinD1, sequence (P24385 whole entry partner): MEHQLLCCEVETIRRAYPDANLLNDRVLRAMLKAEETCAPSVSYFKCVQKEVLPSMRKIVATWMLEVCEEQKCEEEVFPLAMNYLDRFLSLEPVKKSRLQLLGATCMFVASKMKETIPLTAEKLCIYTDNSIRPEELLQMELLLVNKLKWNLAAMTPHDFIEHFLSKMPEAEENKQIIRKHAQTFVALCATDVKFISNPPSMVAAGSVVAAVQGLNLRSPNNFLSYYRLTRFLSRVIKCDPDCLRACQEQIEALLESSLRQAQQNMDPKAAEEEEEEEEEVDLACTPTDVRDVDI
AURORA B, sequence (Q96GD4 whole entry): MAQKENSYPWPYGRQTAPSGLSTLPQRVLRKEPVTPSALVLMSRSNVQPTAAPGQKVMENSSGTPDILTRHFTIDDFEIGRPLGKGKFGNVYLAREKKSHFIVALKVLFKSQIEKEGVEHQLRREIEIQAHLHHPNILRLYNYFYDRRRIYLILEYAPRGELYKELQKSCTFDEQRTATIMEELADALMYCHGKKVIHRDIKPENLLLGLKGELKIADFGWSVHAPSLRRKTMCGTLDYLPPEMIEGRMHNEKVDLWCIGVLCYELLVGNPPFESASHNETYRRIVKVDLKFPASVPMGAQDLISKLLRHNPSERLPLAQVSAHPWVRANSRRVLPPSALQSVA

The first series concerns the target CDK4/cyclinD1 (Homo sapiens, UniProt P11802). Briefly: In vitro filtration assay for CDK4 inhibitory activity (pRb phosphorylation, [33P]-ATP). Format: biochemical. Particulars: GST-pRb substrate, 1 μM unlabeled ATP, 25° C. 45 minutes, read-out: cdk4 filter (pIC50) (converted). The method in brief:
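CDK4/cyclinD1 phosphorylating GST-pRb for 45 min at 25 °C in Hepes pH 7.5 with 1 µM ATP plus [33P]-ATP; labelled pRb captured on filtermats and counted. Activity expressed as percent of blank-corrected DMSO control; IC50 by linear interpolation, reported as pIC50.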
Regarding `CN1CCN(c2ccc(Nc3ncc4cnn(C5CCCCC5)c4n3)cc2)CC1` [Co. No. 1], the IC50 is 3.16 nM.
Turning to `CN1CCN(c2ccc(Nc3ncc4ncn(C5CCCCC5)c4n3)cc2)CC1` [Co. No. 5], the IC50 is 631 nM.
The same measure, in the same setting: next, `CN1CCN(c2ccc(Nc3ncc4[nH]c(=O)n(C5CCCCC5)c4n3)cc2)CC1` [Co. No. 6]: 251 nM; `CN1CCN(c2ccc(Nc3ncc4c(=O)[nH]n(C5CCCCC5)c4n3)cc2)CC1` [Co. No. 7]: 79.4 nM; `O=S(=O)(c1ccc(Nc2ncc3cnn(C4CCCCC4)c3n2)cc1)N1CCOCC1` [Co. No. 8]: 100 nM.
On the same count and under the same terms, then `O=C(NC1CCN(CCO)CC1)c1ccc(Nc2ncc3cnn(C4CCCCC4)c3n2)cc1` [Co. No. 9], with 126 nM.
Still for that read-out and setting: next, `CN1CCN(c2ccc(Nc3ncc4cnn(-c5ccccc5)c4n3)cc2)CC1` [compound 14]: 20 nM.
On to `CN1CCN(c2ccc(Nc3ncc4c(=O)[nH]n(C5CCCC5)c4n3)cc2)CC1` [compound 91], for which the IC50 is 631 nM.
With `O=c1[nH]n(C2CCCC2)c2nc(Nc3ccc(N4CCOCC4)cc3)ncc12` [compound 93], the IC50 was 5010 nM.
`O=c1[nH]n(C2CCCCC2)c2nc(Nc3ccc(N4CCC(CCCO)CC4)cc3)ncc12` [compound 94]: the IC50 was 1580 nM.

The target in the next series is T1, AURORA A (Homo sapiens, UniProt O14965).
T1 sequence (O14965 1-403): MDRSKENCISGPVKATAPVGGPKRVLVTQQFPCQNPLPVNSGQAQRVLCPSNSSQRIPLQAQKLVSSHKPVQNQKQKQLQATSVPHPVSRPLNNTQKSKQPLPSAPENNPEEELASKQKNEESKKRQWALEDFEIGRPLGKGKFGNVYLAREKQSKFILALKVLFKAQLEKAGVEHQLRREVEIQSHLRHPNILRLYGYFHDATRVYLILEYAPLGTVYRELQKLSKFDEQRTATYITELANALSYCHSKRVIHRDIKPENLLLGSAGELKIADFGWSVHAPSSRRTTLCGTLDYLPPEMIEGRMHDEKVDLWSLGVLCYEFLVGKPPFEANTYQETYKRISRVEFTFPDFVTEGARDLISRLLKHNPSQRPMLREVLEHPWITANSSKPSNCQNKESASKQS
Briefly: In vitro filtration assay for AURORA A inhibitory activity. Format: biochemical. Particulars: Kemptide substrate, 1 μM unlabeled ATP, 25° C. 40 minutes, read-out: Aurora A see C.2 (pIC50) (converted). The method in brief:
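Radiometric filter-binding assay at 25 °C for 40 min in MOPS pH 7 buffer with 1 μM ATP plus [33P]-ATP, 200 μM Kemptide and 3 ng enzyme/well. Blank-corrected cpm were expressed as % of DMSO control. IC50 was obtained by linear interpolation around 50% and reported as pIC50.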
`CN1CCN(c2ccc(Nc3ncc4cnn(C5CCCCC5)c4n3)cc2)CC1` [Co. No. 1]: the IC50 is 126 nM.
Still for that read-out and setting: then `CN1CCN(c2ccc(Nc3ncc4ncn(C5CCCCC5)c4n3)cc2)CC1` [Co. No. 5], with more than 10000 nM; and `CN1CCN(c2ccc(Nc3ncc4[nH]c(=O)n(C5CCCCC5)c4n3)cc2)CC1` [Co. No. 6], with more than 10000 nM; and `O=S(=O)(c1ccc(Nc2ncc3cnn(C4CCCCC4)c3n2)cc1)N1CCOCC1` [Co. No. 8], with 501 nM.
Same read-out and setting: then `O=C(NC1CCN(CCO)CC1)c1ccc(Nc2ncc3cnn(C4CCCCC4)c3n2)cc1` [Co. No. 9], with 251 nM; and `CN1CCN(c2ccc(Nc3ncc4cnn(-c5ccccc5)c4n3)cc2)CC1` [compound 14], with 79.4 nM; and `CN1CCN(c2ccc(Nc3ncc4c(=O)[nH]n(C5CCCC5)c4n3)cc2)CC1` [compound 91], with 7940 nM.
Same read-out and setting: next, `O=c1[nH]n(C2CCCC2)c2nc(Nc3ccc(N4CCOCC4)cc3)ncc12` [compound 93]: 1580 nM.
In the case of `O=c1[nH]n(C2CCCCC2)c2nc(Nc3ccc(N4CCC(CCCO)CC4)cc3)ncc12` [compound 94], the IC50 was 3160 nM.

Another series deals with AURORA B (Homo sapiens, UniProt Q96GD4). The series can be described thus: In vitro filtration assay for AURORA B inhibitory activity. It is filed as biochemical. The conditions noted are these: peptide (C(LRRWSLG)×4), 1 μM unlabeled ATP, 25° C. 40 minutes, read-out: Aurora B see C.3 (pIC50) (converted). In outline:
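Radiometric filter-binding assay: Aurora-B (100 ng/well) phosphorylates C(LRRWSLG)×4 peptide with 1 μM ATP plus AT^33P, HEPES pH 7.5, Mg/Mn, 40 min at 25° C. Incorporated 33P counted after phosphoric acid washes; blank-subtracted % of control, IC50 by linear interpolation, reported as pIC50.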
`CN1CCN(c2ccc(Nc3ncc4cnn(C5CCCCC5)c4n3)cc2)CC1` [Co. No. 1]: the IC50 is 251 nM.
Still for that read-out and setting: then `CN1CCN(c2ccc(Nc3ncc4ncn(C5CCCCC5)c4n3)cc2)CC1` [Co. No. 5], with more than 10000 nM; and `CN1CCN(c2ccc(Nc3ncc4[nH]c(=O)n(C5CCCCC5)c4n3)cc2)CC1` [Co. No. 6], with more than 10000 nM; and `CN1CCN(c2ccc(Nc3ncc4c(=O)[nH]n(C5CCCCC5)c4n3)cc2)CC1` [Co. No. 7], with 398 nM.
Same read-out and setting: next, `O=S(=O)(c1ccc(Nc2ncc3cnn(C4CCCCC4)c3n2)cc1)N1CCOCC1` [Co. No. 8]: more than 10000 nM; `O=C(NC1CCN(CCO)CC1)c1ccc(Nc2ncc3cnn(C4CCCCC4)c3n2)cc1` [Co. No. 9]: 794 nM; `CN1CCN(c2ccc(Nc3ncc4cnn(-c5ccccc5)c4n3)cc2)CC1` [compound 14]: 794 nM.
As to `CN1CCN(c2ccc(Nc3ncc4c(=O)[nH]n(C5CCCC5)c4n3)cc2)CC1` [compound 91], the IC50 is more than 10000 nM.
As for `O=c1[nH]n(C2CCCC2)c2nc(Nc3ccc(N4CCOCC4)cc3)ncc12` [compound 93], the IC50 is more than 10000 nM.
`O=c1[nH]n(C2CCCCC2)c2nc(Nc3ccc(N4CCC(CCCO)CC4)cc3)ncc12` [compound 94]: the IC50 was more than 10000 nM.

For a further series, the target named is CDK4/cyclinD1 enzyme complex (Homo sapiens, UniProt P11802). Briefly: In vitro scintillation proximity assay (SPA) for CDK4 inhibitory activity. Format: biochemical. The conditions noted are these: GST-pRb substrate, 33P-ATP, 25° C. 30 minutes, read-out: cdk4 SPA see C.4 (pIC50) (converted). Here is the method: Compounds of the present invention were tested in an in vitro assay based on SPA technology.
CDK4/cyclinD1 enzyme complex, sequence (P11802 whole entry): as the sequence (P11802 whole entry) above
CDK4/cyclinD1 enzyme complex, sequence (P24385 whole entry partner): as the sequence (P24385 whole entry partner) above
In principle, the assay relies upon the well established SPA technology for the detection of CDK4 phosphorylated proteins, i.e pRb. This phosphorylation is performed using I0 CDK4/cyclinD1 enzyme complex and ^33P-ATP as phosphor donor.
The CDK4 SPA kinase reaction is performed at 25° C. for 30 minutes in a 96-well microtiter plate. The 100 μl reaction volume contains 40 mM Hepes, 6 mM NaF, 6 mM MgCl2, 0.6 mM Na3VO4, 2 μg/ml Pepstatin, 2 μg/ml Leupeptin, 2 μg/ml Aprotinin, 50 μg/ml TLCK, 150 μg/ml DTT, 0.3 μg/ml benzamide, 0.1 μCi ^33P-ATP, 1.7 μg GST-pRb, 50 ng CDK4/cyclinD1/well and 0.2% compound in 100% DMSO. The reaction is stopped by adding to each well 100 μl of the glutathione coated SPA beads (10 mg/ml in PBS+10 mM EDTA+100 μM ATP+0.05% Triton X 100). The plates are then shaked at 300 rpm for 30 min to allow binding of the GST-tagged substrate to the glutathione coated beads. The beads are allowed to settle at the bottom of the plate for 30 minutes. The microtiterplates are centrifuges at 800 rpm for 10 minutes and the amount of phosphorylated (^33P) substrate is determined by counting (30 sec/well) in a microtiterplate scintillation counter.
For each experiment, controls (containing enzyme (complex) and DMSO without compound), a blank incubation (containing DMSO but no enzyme (complex) or compound) and samples (containing enzyme (complex) and compound dissolved in DMSO) were run in parallel. All compounds tested were dissolved and eventually further diluted in DMSO. […] In each test, the blank value was subtracted from both the control and the sample values. The control sample represented maximal enzyme activity. For each sample, the amount of cpm was expressed as a percentage of the mean cpm value of the controls. When appropriate, IC50-values (concentration of the drug, needed to reduce the enzyme activity to 50% of the control) were computed using linear interpolation between the experimental points just above and below the 50% level. Herein the effects of test compounds are expressed as pIC50 (the negative log value of the IC50-value).
A general note: SPA uses beads or plates that emit light when radiolabelled molecules are held near them.
As to `CN1CCN(c2ccc(Nc3ncc4cnn(C5CCCCC5)c4n3)cc2)CC1` [Co. No. 1], the IC50 was 5.01 nM.
The same measure, in the same setting: next, `CN1CCN(c2ccc(Nc3ncc4ncn(C5CCCCC5)c4n3)cc2)CC1` [Co. No. 5]: 3160 nM.
With `CN1CCN(c2ccc(Nc3ncc4[nH]c(=O)n(C5CCCCC5)c4n3)cc2)CC1` [Co. No. 6], the IC50 is 100 nM.
The same measure, in the same setting: then `CN1CCN(c2ccc(Nc3ncc4c(=O)[nH]n(C5CCCCC5)c4n3)cc2)CC1` [Co. No. 7], with 158 nM; and `CN1CCN(c2ccc(Nc3ncc4cnn(-c5ccccc5)c4n3)cc2)CC1` [compound 14], with 3.98 nM.
The same measure, in the same setting: then `CN1CCN(c2ccc(Nc3ncc4c(=O)[nH]n(C5CCCC5)c4n3)cc2)CC1` [compound 91], with 1260 nM; and `O=c1[nH]n(C2CCCC2)c2nc(Nc3ccc(N4CCOCC4)cc3)ncc12` [compound 93], with 2510 nM.
With `O=c1[nH]n(C2CCCCC2)c2nc(Nc3ccc(N4CCC(CCCO)CC4)cc3)ncc12` [compound 94], the IC50 is 1000 nM.

Test system in the next series: not given
Test: not given
Settings: not given
Take `CN1CCN(c2ccc(Nc3ncc4cnn(C5CCCCC5)c4n3)cc2)CC1` [Co. No. 1]: the melting point (as a rule, the temperature, or range, at which the solid turns liquid) is 180 °C.
Same read-out and setting: then `CN1CCN(c2ccc(Nc3ncc4ncn(C5CCCCC5)c4n3)cc2)CC1` [Co. No. 5], with 203.5 to 203.6 °C; and `CN1CCN(c2ccc(Nc3ncc4[nH]c(=O)n(C5CCCCC5)c4n3)cc2)CC1` [Co. No. 6], with 294 °C; and `CN1CCN(c2ccc(Nc3ncc4c(=O)[nH]n(C5CCCCC5)c4n3)cc2)CC1` [Co. No. 7], with more than 260 °C.
Same read-out and setting: next, `O=S(=O)(c1ccc(Nc2ncc3cnn(C4CCCCC4)c3n2)cc1)N1CCOCC1` [Co. No. 8]: 240 °C.
Still for that read-out and setting: next, `O=C(NC1CCN(CCO)CC1)c1ccc(Nc2ncc3cnn(C4CCCCC4)c3n2)cc1` [Co. No. 9]: 177 to 181 °C.
